Measurements: patent publication US8269043B2, “Bicyclic aryl sphingosine 1-phosphate analogs” (Biogen Idec MA Inc., priority 2008, dated 2012)

Tests used:
human S1P3 receptor [1] = target: T1, human S1P3 receptor (Homo sapiens, UniProt Q99500); test: Calcium mobilization assay, agonist activity at human S1P3; format: cell-based; conditions: recombinant CHEM cells expressing human S1P3, FLIPR Calcium 4 dye (FIG. 9, FIG. 11)
T1 construct: host or cells: recombinant CHEM cells
Procedure: (§1) Compounds that were not specific for the S1P, receptor, can have activity for other S1P receptor subtypes, e.g., S1P2, S1P3, S1P4, or S1P5, and can cause undesirable side effects. Accordingly, compounds were tested to identify those that were specific for S1P1 activity and had little or no activity, or are antagonists of, S1P3 activity. Accordingly, the test compounds were tested in a calcium mobilization assay to determine agonist activity at either the human S1P1 or human S1P3 receptor, and antagonist activity only at the human S1P3 receptor. The procedure was essentially as described (with modifications described below) in Davis et al. (2005) Journal of Biological Chemistry, vol. 280, pp. 9833-9841, which is incorporated by reference in its entirety. Calcium mobilization assays were performed in recombinant CHEM cells expressing human S1P1 or S1P3 purchased from Millipore (Billerica, Mass.). To detect free intracellular calcium, S1P1 or S1P3 cells were loaded with FLIPR Calcium 4 dye from Molecular Devices (Sunnyvale, Calif.). Cells were imagined for calcium mobilization using a FLIPR^TETRA equipped with a 96-well dispense head.

human S1P1 = target: T2, human S1P1 (Homo sapiens, UniProt P21453); test: Calcium mobilization assay, agonist activity at human S1P1; format: cell-based; conditions: recombinant CHEM cells expressing human S1P1, FLIPR Calcium 4 dye (FIG. 8, FIG. 11)
T2 construct: host or cells: recombinant CHEM cells
Procedure: as §1

human S1P3 receptor [2] = target: T1, human S1P3 receptor; test: Calcium mobilization assay, antagonist activity at human S1P3; format: cell-based; conditions: recombinant CHEM cells expressing human S1P3, FLIPR Calcium 4 dye (FIG. 10, FIG. 11)
Procedure: as §1

[3] = test system: sphingosine kinase 2 (SK2); test: Sphingosine kinase 2 (SK2) substrate assay with lysate of transfected HEK293E cells, HPLC detection; format: biochemical, canine, mouse, or human; conditions: 20 μM test compound, 37° C., 70 minutes, HPLC with and without added SPHK2 (FIG. 7)
Procedure: To assay a test compound for its properties as a substrate of sphingosine kinase 2 (SK2), an assay using recombinantly expressed SK2 was used. Briefly, HEK293E cells were transiently transfected with plasmids containing DNA encoding a sphingosine kinase 2 (SK2) (canine, mouse, or human). […]
The SK2 kinase assay was performed in a 200 μL reaction mixture containing 20 μm sphingosine (control) or 20 μM test compound (prepared as a 200 μM stock solution containing 0.1% fatty acid-free bovine serum albumin (BSA)), 38 μL lysate, and 2 μM ATP (freshly prepared). Kinase reactions were incubated at 37° C. for 70 minutes followed by detection of phosphorylated compound (control or test compound) using UV absorbance at 282 nm. […] The supernatant was analyzed on HPLC using a C18 column (FIG. 7). The parent and phosphorylated test compound were quantitated using area under the curve (AUC) calculation. […]

circulating lymphocytes = test: Lymphopenia assay: circulating lymphocytes after oral gavage; format: in vivo; conditions: Mus musculus, Lymphocyte, po, C57bl/6 male mice, oral gavage 0.5 and 5 mg/kg in 30% HPCD, blood 5 and 24 hours after administration
Outline: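 Male C57bl/6 mice, 6-10 weeks old, given 0.5 and 5 mg/kg orally by gavage in 30% HPCD, three mice per compound. Retro-orbital blood taken at 5 and 24 h post-dose. Peripheral lymphocytes counted on an automated hematology analyzer.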

T2 sequence (P21453 whole entry): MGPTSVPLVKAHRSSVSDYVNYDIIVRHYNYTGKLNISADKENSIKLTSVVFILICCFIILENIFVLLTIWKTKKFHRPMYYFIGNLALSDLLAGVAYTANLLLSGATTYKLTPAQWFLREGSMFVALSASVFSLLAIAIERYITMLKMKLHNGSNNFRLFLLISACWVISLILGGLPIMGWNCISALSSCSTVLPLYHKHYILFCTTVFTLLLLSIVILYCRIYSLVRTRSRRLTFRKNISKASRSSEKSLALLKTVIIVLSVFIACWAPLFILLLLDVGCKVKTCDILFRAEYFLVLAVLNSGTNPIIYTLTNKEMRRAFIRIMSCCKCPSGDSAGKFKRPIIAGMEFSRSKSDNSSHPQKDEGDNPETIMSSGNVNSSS
T1 sequence (Q99500 whole entry): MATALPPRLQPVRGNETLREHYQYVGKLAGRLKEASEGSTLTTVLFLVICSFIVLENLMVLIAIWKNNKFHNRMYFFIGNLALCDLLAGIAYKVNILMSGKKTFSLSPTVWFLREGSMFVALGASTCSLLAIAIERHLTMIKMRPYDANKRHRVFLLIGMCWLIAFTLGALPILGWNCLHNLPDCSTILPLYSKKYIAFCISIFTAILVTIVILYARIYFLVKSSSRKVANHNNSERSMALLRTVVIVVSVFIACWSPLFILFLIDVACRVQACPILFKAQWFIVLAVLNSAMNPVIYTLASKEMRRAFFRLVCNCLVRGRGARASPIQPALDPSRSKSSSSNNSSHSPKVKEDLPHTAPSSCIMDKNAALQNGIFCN

| S1P3 antagonist activity (human S1P3 receptor [2]) | Structure (SMILES) | S1P3 agonist activity (human S1P3 receptor [1]) | S1P1 agonist activity (human S1P1) | phosphorylation of test compound by SPHK2 [3] | ED50 (circulating lymphocytes) |
| --- | --- | --- | --- | --- | --- |
| – | CCCCCCCCCCCCC/C=C/[C@@H](O)[C@@H](N)COP(=O)(O)O [Example S1P, Sphingosine 1-phosphate] | full S1P3 agonist | – | – | – |
| S1P3 antagonists | C[C@](N)(COP(=O)(O)O)c1ccc2c(C(F)(F)F)c(O[C@H]3CC[C@H](C(F)(F)F)CC3)ccc2c1 [Example 269, Phosphoric acid mono-{(R)-2-amino-2-[5-trifluoromethyl-6-(trans-4-trifluoromethyl-cyclohexyloxy)-naphthalen-2-yl]-propyl}ester] | not S1P3 agonists | S1P, agonists | – | – |
| – | COc1ccc2cc([C@H](C)COC(N)=O)ccc2c1 [Example 2, carbamic acid (S)-2-(6-methoxy-naphthalen-2-yl)-propyl ester] | no activity was seen | – | – | – |
| do not antagonize the S1P3 receptor | CCCC[C@H]1CC[C@@H](Oc2ccc3cc([C@@](C)(N)COP(=O)(O)O)ccc3c2C(F)(F)F)CC1 (relative stereo) [Example 21, (R)-2-amino-2-(6-(cis-4-butylcyclohexyloxy)-5-(trifluoromethyl)naphthalen-2-yl)propan-1-phosphoric acid] | weak micromolar partial S1P3 agonist activity | agonists of the S1P, receptor, with potencies similar to S1P | the compound is phosphorylated under these conditions | – |
| – | NC(CO)(CO)c1ccc2cc(Oc3ccc(OCc4ccccc4)cc3)ccc2c1 [Example 248, 2-amino-2-(6-(4-(benzyloxy)phenoxy)naphthalen-2-yl)propane-1,3-diol] | – | – | – | < 0.5 mg/kg |

| Structure (SMILES) | S1P3 antagonist activity (human S1P3 receptor [2]) | S1P3 agonist activity (human S1P3 receptor [1]) | S1P1 agonist activity (human S1P1) | phosphorylation of test compound by SPHK2 [3] | ED50 (circulating lymphocytes) |
| --- | --- | --- | --- | --- | --- |
| CC(C)(C)[C@H]1CC[C@H](Oc2ccc3cc(C(N)(COP(=O)(O)O)COP(=O)(O)O)ccc3c2C(F)(F)F)CC1 [Example 61A, 2-amino-2-[6-(trans-4-tert-butylcyclohexyloxy)-5-trifluoromethyl-naphthalen-2-yl]-propane-1,3-diphosphoric acid] | do not antagonize the S1P3 receptor | – | agonists of the S1P, receptor, with potencies similar to S1P | – | – |
